Results from PubChem BioAssay AID330 (DTP/NCI, 2004).
Values joined by “and” are separate entries in the source; they are usually repeats but may differ in a detail not shown here. Equal entries are not always repeated. Toxic doses and inconclusive results are not listed.

Tested on: P388 leukemia ip, CD2F1 mice, survival T/C
Experiment: NCI In Vivo Anticancer Drug Screen. Data for tumor model P388 Leukemia (intraperitoneal) in CD2F1 (CDF1) mice
Settings: endpoint: median survival time, higher = longer survival
Summary of the method: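 Mice carrying the transplanted tumor received test compound or vehicle. Survival was recorded in each group, and the value is the treated-group measurement divided by that of the vehicle-treated control group.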

[1] = dose: 100.0 mg/kg/injection, schedule: Q04DX003 (ip), vehicle: Klucel (hydroxypropylcellulose) (HPC)
[2] = dose: 200.0 mg/kg/injection, schedule: Q04DX003 (ip), vehicle: Klucel (hydroxypropylcellulose) (HPC)
[3] = dose: 400.0 mg/kg/injection, schedule: Q04DX003 (ip), vehicle: Klucel (hydroxypropylcellulose) (HPC)
[4] = dose: 50.0 mg/kg/injection, schedule: Q01DX005 (ip), vehicle: Klucel (hydroxypropylcellulose) (HPC)
[5] = dose: 100.0 mg/kg/injection, schedule: Q01DX005 (ip), vehicle: Klucel (hydroxypropylcellulose) (HPC)
[6] = dose: 200.0 mg/kg/injection, schedule: Q01DX005 (ip), vehicle: Klucel (hydroxypropylcellulose) (HPC)
[7] = dose: 60.0 mg/kg/injection, schedule: Q01DX005 (ip), vehicle: saline with Tween-80
[8] = dose: 120.0 mg/kg/injection, schedule: Q01DX005 (ip), vehicle: saline with Tween-80
[9] = dose: 240.0 mg/kg/injection, schedule: Q01DX005 (ip), vehicle: saline with Tween-80
[10] = dose: 50.0 mg/kg/injection, schedule: Q04DX002 (ip), vehicle: Klucel (hydroxypropylcellulose) (HPC)
[11] = dose: 100.0 mg/kg/injection, schedule: Q04DX002 (ip), vehicle: Klucel (hydroxypropylcellulose) (HPC)
[12] = dose: 60.0 mg/kg/injection, schedule: Q01DX005 (ip), vehicle: Klucel (hydroxypropylcellulose) (HPC)
[13] = dose: 120.0 mg/kg/injection, schedule: Q01DX005 (ip), vehicle: Klucel (hydroxypropylcellulose) (HPC)
[14] = dose: 240.0 mg/kg/injection, schedule: Q01DX005 (ip), vehicle: Klucel (hydroxypropylcellulose) (HPC)
[15] = dose: 50.0 mg/kg/injection, schedule: Q01DX005 (ip), vehicle: saline with Tween-80
[16] = dose: 200.0 mg/kg/injection, schedule: Q01DX005 (ip), vehicle: saline with Tween-80

CCN(CC)CCOc1ccc(N(CCCl)CCCl)cc1
T/C (dose: 3.13 mg/kg/injection, schedule: Q04DX003 (ip), vehicle: Klucel (hydroxypropylcellulose) (HPC)): 117 % of control
T/C (dose: 12.5 mg/kg/injection, schedule: Q04DX003 (ip), vehicle: Klucel (hydroxypropylcellulose) (HPC)): 153 % of control and 168 % of control
T/C (dose: 25.0 mg/kg/injection, schedule: Q04DX003 (ip), vehicle: Klucel (hydroxypropylcellulose) (HPC)): 90 % of control

Cc1ccc2c(Nc3ccc(NS(C)(=O)=O)cc3)c3ccccc3nc2c1C
T/C (dose: 0.59 mg/kg/injection, schedule: Q01DX009 (ip), vehicle: saline with Tween-80): 110 % of control
T/C (dose: 5.0 mg/kg/injection, schedule: Q01DX009 (ip), vehicle: other): 154 % of control
T/C (dose: 10.0 mg/kg/injection, schedule: Q01DX009 (ip), vehicle: other): 165 % of control
T/C (dose: 19.4 mg/kg/injection, schedule: Q04DX003 (ip), vehicle: water): 123 % of control
T/C (dose: 20.0 mg/kg/injection, schedule: Q01DX009 (ip), vehicle: other): 197 % of control
T/C (dose: 22.0 mg/kg/injection, schedule: Q04DX003 (ip), vehicle: saline with Tween-80): 154 % of control
T/C (dose: 33.0 mg/kg/injection, schedule: Q04DX003 (ip), vehicle: saline with Tween-80): 168 % of control
T/C (dose: 75.0 mg/kg/injection, schedule: Q04DX003 (ip), vehicle: saline with Tween-80): 195 % of control and 218 % of control
T/C (dose: 90.0 mg/kg/injection, schedule: Q04DX003 (ip), vehicle: water): 155 % of control
T/C (dose: 150.0 mg/kg/injection, schedule: Q04DX003 (ip), vehicle: saline with Tween-80): 254 % of control
T/C (dose: 300.0 mg/kg/injection, schedule: Q04DX003 (ip), vehicle: saline with Tween-80): 86 % of control

CS/C(=C1/C(=O)N(c2ccccc2)N=C1c1ccccc1)N1CC1
T/C [1]: 98 % of control
T/C [2]: 94 % of control
T/C [3]: 95 % of control

Cc1ccc2nc3[nH]c(=O)[nH]c(=O)c3c(C(N)=O)c2c1
T/C [4]: 100 % of control
T/C [5]: 94 % of control
T/C [6]: 94 % of control

O=C(NCCCCNCCCNC(=O)c1ccc([N+](=O)[O-])cc1)c1ccc([N+](=O)[O-])cc1
T/C [7]: 97 % of control
T/C [8]: 92 % of control
T/C [9]: 98 % of control

Cc1ccc(-c2csc3nc(C)c(CN4CCOCC4)c(=O)n23)cc1
T/C (dose: 25.0 mg/kg/injection, schedule: Q04DX002 (ip), vehicle: Klucel (hydroxypropylcellulose) (HPC)): 99 % of control
T/C [10]: 106 % of control
T/C [11]: 101 % of control
T/C (dose: 200.0 mg/kg/injection, schedule: Q04DX002 (ip), vehicle: Klucel (hydroxypropylcellulose) (HPC)): 102 % of control

c1ccc(-c2cc[n+]3c4c2ccc2c(-c5ccccc5)cc[n+](c24)CC3)cc1
T/C (dose: 6.25 mg/kg/injection, schedule: Q01DX009 (ip), vehicle: saline): 99 % of control
T/C (dose: 12.5 mg/kg/injection, schedule: Q01DX009 (ip), vehicle: saline): 98 % of control and 100 % of control
T/C (dose: 25.0 mg/kg/injection, schedule: Q01DX009 (ip), vehicle: saline): 104 % of control and 117 % of control

COC(=O)C1=C(C(=O)OC)SC(=C2C3=C(SC(C(=O)OC)=C(C(=O)OC)S3)c3ccccc32)S1
T/C (dose: 30.0 mg/kg/injection, schedule: Q01DX005 (ip), vehicle: Klucel (hydroxypropylcellulose) (HPC)): 96 % of control
T/C [12]: 87 % of control and 91 % of control
T/C [13]: 89 % of control
T/C [14]: 86 % of control

O=C([O-])CC(=O)[O-].[Cu+2].[OH3+].[OH3+]
T/C (dose: 15.0 mg/kg/injection, schedule: Q01DX005 (ip), vehicle: Klucel (hydroxypropylcellulose) (HPC)): 99 % of control

C[Si](C)(C)Cn1ccc(=O)[nH]c1=O
T/C (dose: 60.0 mg/kg/injection, schedule: Q01DX005 (ip), vehicle: Klucel + Tween-80): 94 % of control
T/C (dose: 120.0 mg/kg/injection, schedule: Q01DX005 (ip), vehicle: Klucel + Tween-80): 92 % of control
T/C (dose: 240.0 mg/kg/injection, schedule: Q01DX005 (ip), vehicle: Klucel + Tween-80): 98 % of control

Cn1cc(/C=C/[N+](=O)[O-])c2ccccc21
T/C [1]: 105 % of control
T/C [2]: 99 % of control
T/C [3]: 100 % of control

CCCC[CH2][Pb]([CH2]CCCC)([CH2]CCCC)[O]C(C)=O
T/C (dose: 0.25 mg/kg/injection, schedule: Q01DX009 (ip), vehicle: saline sonified): 104 % of control
T/C (dose: 0.5 mg/kg/injection, schedule: Q01DX009 (ip), vehicle: saline sonified): 109 % of control
T/C (dose: 1.0 mg/kg/injection, schedule: Q01DX009 (ip), vehicle: saline sonified): 104 % of control

COP1(=O)OC(C)=C(C)c2cccn21 (stereo not drawn)
T/C (dose: 25.0 mg/kg/injection, schedule: Q04DX003 (ip), vehicle: saline with Tween-80): 103 % of control
T/C (dose: 50.0 mg/kg/injection, schedule: Q04DX003 (ip), vehicle: saline with Tween-80): 106 % of control
T/C (dose: 100.0 mg/kg/injection, schedule: Q04DX003 (ip), vehicle: saline with Tween-80): 99 % of control and 96 % of control

O=C1C(=C(O)c2ccccc2)C(=O)c2ccccc21
T/C (dose: 15.0 mg/kg/injection, schedule: Q01DX005 (ip), vehicle: saline with Tween-80): 99 % of control
T/C (dose: 30.0 mg/kg/injection, schedule: Q01DX005 (ip), vehicle: saline with Tween-80): 105 % of control
T/C [7]: 105 % of control and 109 % of control
T/C [8]: 104 % of control

CCCCN1C(=O)C(CC(=O)OCC)SC1=S (stereo not drawn)
T/C [12]: 95 % of control
T/C [13]: 97 % of control
T/C [14]: 97 % of control

CC(C)c1ccc2c(c1)CCC1C(C)(CN)CCCC21C (stereo not drawn)
T/C [4]: 97 % of control
T/C [5]: 99 % of control

O=C(c1ccccc1)c1ccccc1NCC(O)COc1cccc2ccccc12 (stereo not drawn)
T/C [7]: 100 % of control
T/C [8]: 92 % of control
T/C [9]: 91 % of control

O=C1c2ccccc2C(=O)c2c1cc1cccccc2-1
T/C (dose: 3.13 mg/kg/injection, schedule: Q01DX005 (ip), vehicle: saline with Tween-80): 99 % of control
T/C (dose: 6.25 mg/kg/injection, schedule: Q01DX005 (ip), vehicle: saline with Tween-80): 97 % of control
T/C (dose: 12.5 mg/kg/injection, schedule: Q01DX005 (ip), vehicle: saline with Tween-80): 90 % of control and 91 % of control
T/C [15]: 89 % of control
T/C [16]: 95 % of control

O=c1[nH]c2ccccc2c2nc(-c3ccccc3)c3ccccc3c12
T/C [12]: 96 % of control
T/C [13]: 86 % of control
T/C [14]: 91 % of control

COc1cc2c(cc1OC)C(Cc1ccsc1)NCC2 (stereo not drawn)
T/C [10]: 102 % of control
T/C [11]: 100 % of control

CCc1nc(N)nc(N)c1-c1ccc(N(C)Cc2ccccc2)c(N)c1
T/C [4]: 96 % of control
T/C [5]: 93 % of control
T/C [6]: 103 % of control

CCOC(=O)Nc1c(CC(C)O)n[nH]c1C (stereo not drawn)
T/C [15]: 110 % of control
T/C (dose: 100.0 mg/kg/injection, schedule: Q01DX005 (ip), vehicle: saline with Tween-80): 100 % of control
T/C [16]: 96 % of control

COc1cc(C(O)C2C(=O)OCC2C2(c3ccc4c(c3)OCO4)SCCCS2)cc(OC)c1OC (stereo not drawn)
T/C (dose: 50.0 mg/kg/injection, schedule: Q01DX009 (ip), vehicle: saline with Tween-80): 107 % of control
T/C (dose: 100.0 mg/kg/injection, schedule: Q01DX001 (ip), vehicle: saline with Tween-80): 109 % of control
T/C (dose: 100.0 mg/kg/injection, schedule: Q01DX009 (ip), vehicle: saline with Tween-80): 115 % of control
T/C (dose: 200.0 mg/kg/injection, schedule: Q01DX001 (ip), vehicle: saline with Tween-80): 104 % of control
T/C (dose: 200.0 mg/kg/injection, schedule: Q01DX009 (ip), vehicle: saline with Tween-80): 108 % of control

Nn1c(-c2nn[nH]n2)nnc1-c1nn[nH]n1 (tested in a mixture with another compound)
T/C (dose: 50.0 mg/kg/injection, schedule: Q01DX001 (ip), vehicle: Klucel (hydroxypropylcellulose) (HPC)): 109 % of control
T/C (dose: 100.0 mg/kg/injection, schedule: Q01DX001 (ip), vehicle: Klucel (hydroxypropylcellulose) (HPC)): 107 % of control
T/C (dose: 200.0 mg/kg/injection, schedule: Q01DX001 (ip), vehicle: Klucel (hydroxypropylcellulose) (HPC)): 103 % of control
